Assay results as given in patent US7306923B2, “Methods for identification, and compounds useful for the treatment of degenerative & inflammatory diseases” (Galapagos N.V., priority 2004, dated 2007).

Tests used:
[1] = test system: MMP1 expression by synovial fibroblasts; assay: Inhibition of the response of SFs to supernatant of TNFα-triggered THP1 cells, MMP1 ELISA; format: cell-based, human; conditions: dexamethasone 100 nM, SB203580 5 μM, added 1 h before trigger with 2-fold diluted SN of TNFα-activated THP1 cells, 72 h
Description: A 384-well format ELISA for measurement of MMP1 is developed. Various primary antibodies are tested, as well as various ELISA protocols. The following protocol is developed and validated to measure MMP1 levels in SF supernatant in 384 well plates: white Lumitrac 600 384 well plates (Greiner) are coated with 2 μg/ml anti-MMP1 antibody MAB1346 (Chemicon). The antibody is diluted in buffer 40 (1.21 g Tris base (Sigma), 0.58 g NaCl (Calbiochem) and 5 ml 10% NaN3 (Sigma) in 1 L milliQ water and adjusted to pH 8.5). After overnight incubation at 4° C., plates are washed with PBS (80 g NaCl, 2 g KCl (Sigma), 11.5 g Na2HPO4.7H2O and 2 g KH2PO4 in 10 L milliQ; pH 7.4) and blocked with 100 μl/well Casein buffer (2% Casein (VWR International) in PBS). Next day, casein buffer is removed from ELISA plates and replaced by 50 μl/well EC buffer (4 g casein, 2.13 g Na2HPO4 (Sigma), 2 g bovine albumin (Sigma), 0.69 g NaH2PO4.H2O (Sigma), 0.5 g CHAPS (Roche), 23.3 g NaCl, 4 ml 0,5 M EDTA pH 8 (Invitrogen), 5 ml 10% NaN3 in 1 L milliQ and adjusted to pH 7.0). 0.25 mM DTT (Sigma) is added to the thawed samples plates. After removal of the EC buffer, 20 μl of sample is transferred to the ELISA plates. […] Readout is performed on the Luminoscan Ascent Luminometer (Labsystems) with an integration time of 200 msec or with an Envision reader (Perkin Elmer). […]

[2] = test system: MMP1 expression by synovial fibroblasts; assay: MMP1 ELISA on SFs triggered with cytokines or supernatant of cytokine-treated THP1 cells; format: cell-based, human; conditions: each cytokine 25 ng/ml or THP1 supernatant 2-fold diluted, 72 h, 96 well plates
Description: A 384-well format ELISA for measurement of MMP1 is developed. Various primary antibodies are tested, as well as various ELISA protocols. The following protocol is developed and validated to measure MMP1 levels in SF supernatant in 384 well plates: white Lumitrac 600 384 well plates (Greiner) are coated with 2 μg/ml anti-MMP1 antibody MAB1346 (Chemicon). The antibody is diluted in buffer 40 (1.21 g Tris base (Sigma), 0.58 g NaCl (Calbiochem) and 5 ml 10% NaN3 (Sigma) in 1 L milliQ water and adjusted to pH 8.5). After overnight incubation at 4° C., plates are washed with PBS (80 g NaCl, 2 g KCl (Sigma), 11.5 g Na2HPO4.7H2O and 2 g KH2PO4 in 10 L milliQ; pH 7.4) and blocked with 100 μl/well Casein buffer (2% Casein (VWR International) in PBS). Next day, casein buffer is removed from ELISA plates and replaced by 50 μl/well EC buffer (4 g casein, 2.13 g Na2HPO4 (Sigma), 2 g bovine albumin (Sigma), 0.69 g NaH2PO4.H2O (Sigma), 0.5 g CHAPS (Roche), 23.3 g NaCl, 4 ml 0,5 M EDTA pH 8 (Invitrogen), 5 ml 10% NaN3 in 1 L milliQ and adjusted to pH 7.0). […] Readout is performed on the Luminoscan Ascent Luminometer (Labsystems) with an integration time of 200 msec or with an Envision reader (Perkin Elmer).
The increase of MMP1 expression by SFs upon treatment with cytokines relevant in the field of RA (TNFα, IL1β and OSM) or a combination thereof is monitored. […]

Compound | MMP1 levels lower than control levels [1] [fold] | increase (induction) of MMP1 expression by SFs [2] [fold]
C[C@@H]1C[C@H]2[C@@H]3CCC4=CC(=O)C=C[C@]4(C)[C@@]3(F)[C@@H](O)C[C@]2(C)[C@@]1(O)C(=O)CO [dexamethasone] | 4 | 
TNFα |  | ~3
C[S+]([O-])c1ccc(-c2nc(-c3ccncc3)c(-c3ccc(F)cc3)[nH]2)cc1 (stereo not drawn) [SB203580] | 3 | 
